The source of these data is paper PMC9841529 (ACS Infectious Diseases, 2022).

“Also recorded” adds a separate entry of the source. Where two headings read alike, the source gives them in different places. Residues, ends and D or L forms follow the SMILES beside them.

The subject of data set [1] is B. anthracis Sterne 7702 spores. In kind it is cell-based, Bacillus anthracis.
Data set [2] has as its system CXCR3-expressing human T-cells. The format is cell-based.
For data set [3], the system named is B. anthracis Sterne 7702 bacilli (wild-type).
The test system of data set [4] is B. anthracis Sterne 7702 ΔftsX bacilli.
The subject of the next data set is E. cloacae BL36213. In kind it is cell-based, Enterobacter cloacae.
In the next data set the test system is E. faecium AR0575. The format is cell-based, Enterococcus faecium.
The next data set has as its system S. aureus LAC. The format is cell-based, Staphylococcus aureus.
A further data set has as its system N. gonorrhoeae FA1090. The format is cell-based, Neisseria gonorrhoeae.
The test system of a further data set is N. gonorrhoeae H041. The format is cell-based, Neisseria gonorrhoeae.
Data set [5] has as its system mcr-1-positive E. coli FI-4531, E. coli J53 and K. pneumoniae 13883. In kind it is cell-based, Escherichia coli; Klebsiella pneumoniae.
The test system of data set [6] is K. pneumoniae BA2664 (mutated pmrB). In kind it is cell-based, Klebsiella pneumoniae.
For data set [7], the system named is K. pneumoniae MS84 (disrupted mgrB). The format is cell-based, Klebsiella pneumoniae.
For data set [8] the following is noted: pH 7.4.
A further data set deals with A. baumannii AR0304. In kind it is cell-based, Acinetobacter baumannii.

Consider EIIATMKKKGEKRCL [P5], for which, in data set [1], the “decrease of heat-treated cfu counts versus initial spore inoculum” value is given as about 200 fold and the “increase of cfu counts without heat treatment versus initial spore inoculum” value is recorded as “more than 10 fold”. The T-cell migration entry in [2] was “did not elicit T-cell migration”. For the same molecule, the hemolysis entry in the data set with human RBCs is on record as “negligible hemolysis”. Also, the “percentage of dead cells” value with primary human T-cells is “less than 5%”.

Take `CC[C@H](C)[C@H](NC(=O)[C@H](CO)NC(=O)[C@@H](NC(=O)[C@H](CS)NC(=O)[C@@H](NC(=O)[C@H](CS)NC(=O)[C@H](CCCNC(=N)N)NC(=O)[C@@H](NC(=O)[C@@H](NC(=O)[C@H](CCCNC(=N)N)NC(=O)[C@H](CO)NC(=O)[C@H](CC(C)C)NC(=O)[C@@H]1CCCN1C(=O)[C@@H](N)C(C)C)[C@@H](C)O)C(C)C)[C@@H](C)O)[C@@H](C)CC)C(N)=O` [P1] (H-VPLSRTVRCTCISI-NH2): the EC50 in data set [3] (Sterne 7702 bacilli (wild-type, 4 h)) amounted to 18.1 ± 0.3 µM; in [4] (Sterne 7702 ΔftsX bacilli, 4 h), 53.1 ± 0.8 µM; with K. pneumoniae BL13802 (BL13802, 2 h), 13.4 ± 1.2 µM. For the same molecule, in the data set with human RBCs, the hemolysis result is on record as “negligible hemolysis”. Further, the “percentage of dead cells” value in the data set on primary human T-cells was “less than 5%”.

Take TISVCPTLRRIVSC [P1scram]: the “bacterial viability, % survival (RFU)” value in data set [3] is “abolished antimicrobial activity”.

Consider Melittin [reference compound], for which the hemolysis result with human RBCs is reported as “high levels of hemolysis”.

Take “PESKAIK(S5A)LLK(S5A)VSKERSKRSP [pre-stapled peptide P9]”: the concentration for a half-maximal effect (EC50) in data set [3] stood at 4.3 ± 0.4 µM; in data set [4] it was 5 ± 1.2 µM.

On to KNLLKAVSKERSKRSP [P8], for which the “% survival (cfu/ml)” value in the data set on K. pneumoniae BL13802 is “efficiently killed K. pneumoniae”.

CXCL10: the “chemotactic index (CI)” value in data set [2] is reported as “approximately 6”.

On to PESKAIKNLLKAVSKERSKRSP [P9], for which the “bacterial killing (in words)” value in the data set on E. cloacae BL36213 was “lost its capacity to kill any of the isolates examined; also recorded: except E. cloacae”; in the data set with E. faecium AR0575, “lost its capacity to kill any of the isolates examined; also recorded: little to no effect on the viability”; in the data set on S. aureus LAC, “lost its capacity to kill any of the isolates examined; also recorded: little to no effect on the viability”; in the data set on N. gonorrhoeae FA1090, “reductions in bacterial viability were more modest”; in the data set on N. gonorrhoeae H041, “reductions in bacterial viability were more modest”; in data set [5], “undiminished”. Also, the “bacterial killing (in words)” value in [6] and in [7] was “but not peptide P9” in each case. In addition, in the data set on K. pneumoniae BL13802, the “% survival (cfu/ml)” value is given as “efficiently killed K. pneumoniae”. For the same molecule, the “bacterial survival (RFU)” value with K. pneumoniae BL13802 is “abolished the ability”. For the same molecule, the hemolysis entry with human RBCs is recorded as “negligible hemolysis”. In the data set with primary human T-cells, the “percentage of dead cells” value is on record as “less than 5%”. Besides, the “secondary structure content: antiparallel β-sheet” value in data set [8] is recorded as 12%. For the same molecule, the “secondary structure content: turn” value in [8] amounted to 18%. Besides, the “secondary structure content: α-helix” value in [8] came out at 35%.

Turning to “PESKAIK(S5A)LLK(S5A)VSKERSKRSP (sidechain bridge or staple) [stapled peptide P9]”, in data set [1], the “viability of ungerminated spores compared to the initial inoculum” value is “modest reductions in the viability of ungerminated spores”. The “bacterial killing (in words)” value is “particularly susceptible” in the data set with A. baumannii AR0304; “particularly susceptible” in the data set on E. faecium AR0575; “particularly susceptible” with S. aureus LAC; “particularly susceptible” in the data set on N. gonorrhoeae FA1090; “particularly susceptible” in the data set with N. gonorrhoeae H041; “killed colistin-resistant K. pneumoniae and E. coli strains” in data set [5]. Moreover, the “bacterial killing (in words)” value in data set [6] and in data set [7] was “killed colistin-resistant K. pneumoniae” in each case. Besides, the figures for the EC50 in data set [3], in data set [3] (read-out: EC50 values (as stated in running text)) and in [4] were 8.5 ± 0.9 µM, 4 to 5 µM and 9.6 ± 1 µM, respectively. Also, the hemolysis result in the data set on human RBCs is “neither pre-stapled nor stapled peptide P9 exerted hemolytic effects”. Also, the “cytotoxic effects (dead cells)” value in the data set with primary human T-cells is reported as “greatly reduced”. In the data set with primary human T-cells, the “percentage of dead cells” value was about 45%.
